According to US20220193209A1, “COMPOSITIONS AND METHODS FOR REACTIVATING LATENT IMMUNODEFICIENCY VIRUS AND/OR TREATING IMMUNODEFICIENCY VIRUS INFECTION” (The J. David Gladstone institutes, a testamentary trust …, priority 2019, published 2022):

Legend:
FOXO3 = biological target: T1, FOXO3 (Homo sapiens, UniProt O43524); assay: Cellular Thermal Shift Assay (CETSA) in K562 cells, FOXO3; type: binding; conditions: 1 μM
T1 construct: performed against the FOXO isoforms expressed in K562 cells; endogenous in cells; host or cells: K562
T1 sequence (O43524 whole entry, canonical isoform): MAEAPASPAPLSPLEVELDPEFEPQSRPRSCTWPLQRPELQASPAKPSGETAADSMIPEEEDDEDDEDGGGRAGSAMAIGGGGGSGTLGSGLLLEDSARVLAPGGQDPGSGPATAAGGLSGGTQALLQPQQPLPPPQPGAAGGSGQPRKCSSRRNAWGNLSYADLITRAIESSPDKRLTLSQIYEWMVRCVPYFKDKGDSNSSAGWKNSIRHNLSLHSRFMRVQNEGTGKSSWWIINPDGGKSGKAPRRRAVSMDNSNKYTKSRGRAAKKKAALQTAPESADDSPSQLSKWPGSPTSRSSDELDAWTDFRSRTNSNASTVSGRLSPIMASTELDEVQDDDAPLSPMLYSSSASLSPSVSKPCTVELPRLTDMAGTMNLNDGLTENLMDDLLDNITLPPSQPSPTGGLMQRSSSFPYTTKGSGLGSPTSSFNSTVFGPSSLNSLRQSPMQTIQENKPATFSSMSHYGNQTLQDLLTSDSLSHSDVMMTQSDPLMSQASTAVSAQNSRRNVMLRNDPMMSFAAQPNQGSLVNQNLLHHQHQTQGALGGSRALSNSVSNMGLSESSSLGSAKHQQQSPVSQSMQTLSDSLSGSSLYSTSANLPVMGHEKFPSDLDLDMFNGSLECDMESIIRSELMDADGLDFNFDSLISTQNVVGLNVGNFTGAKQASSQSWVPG
Experimental: K562 cells (ATCC) were maintained in appropriate volume of RPMI medium supplemented with 10% fetal bovine serum (Serum Plus—II, Sigma MO, USA), 100 units/mL penicillin and 100 […] (Corning, VA, USA). Short-term passages (<15) were used for all experiments. For CETSA, K562 cell were freshly seeded the day before the experiment. The day of experiment, equal numbers of cells were counted by Moxi Mini automated cell counter (Orflo) and 0.6×10^6 cells per data point were seeded in T-25 cell culture flasks (VWR, PA, USA) in appropriate volume of culture medium. Cells were exposed to […] AS1842856 or equal volume DMSO for 3 hours in an incubator with 5% CO2 and 37° C. […] The supernatants were transferred to new microcentrifuge tubes and analyzed by SDS-PAGE followed by immunoblotting analysis. […] Immunoblotting results were subjected to densitometric analysis (Image J) and melting temperatures of FOXO1, FOXO3 and FOXO4 were determined by Prism 7 (GraphPad) using nonlinear least-squares regression fit to Y=100/(1+10^(Log IC50−X)*H), where H=Hill slope (variable). The viability of the cells was assessed in triplicate by trypan blue exclusion. […]
Briefly, K562 cells were treated with increasing concentrations of the FOXO1 inhibitor AS1842856 just after HIVGKO infection. After 3-4 days, the percentage of latent cells and productive cells were quantified by FACS. […]

Experimental for primary CD4+ T cells: Cell viability was measured with CellTiter-Blue Cell Viability Assay (Promega).
Histogram plot of percent live cells for each drug treatment relative to the control are shown (right side —right panel). Data are represented by mean±SD of four different donors.

With CCn1cc(C(=O)O)c(=O)c2c(N)c(F)c(NC3CCCCC3)cc21 [AS1842856, 5-amino-7-(cyclohexylamino)-1-ethyl-6-fluoro-4-oxo-1,4-dihydro-quinoline-3-carboxylic acid] the “change in FOXO3 melting curve” value (FOXO3) was “no changes” and the “primary T-cell viability” value (primary CD4+ T cells) was “No changes”.
